Patent publication US9839642B2, “Beta-tetrazolyl-propionic acids as metallo-beta-lactamase inhibitors” (priority 2014, dated 2017)

Legend:
[1] = tested on: Klebsiella pneumoniae expressing VIM-1 (IHMA599644); assay: Antibiotic potentiation activity: synergistic concentration (MITC95) with imipenem, growth by OD600; assay type: cell-based; conditions: K. pneumoniae IHMA599644 (VIM-1), 95% inhibition of growth
Outline: (§1)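 Colonies from overnight agar plates (35 °C) were suspended in saline and diluted 1:100 into 1.1× CAMHB. Inhibitor (final 200 μM to 0.195 μM) was combined with imipenem at 1 or 4 μg/ml, incubated 22–24 h at 35 °C, and absorbance read; MITC95 is the lowest inhibitor concentration giving 95% growth inhibition.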

[2] = tested on: Escherichia coli expressing NDM-1 (CLB30005); assay: as above; assay type: cell-based; conditions: E. coli CLB30005 (NDM-1), 95% inhibition of growth
Outline: as §1

[3] = tested on: Serratia marcescens expressing IMP-1 (CL5741); assay: as above; assay type: cell-based; conditions: S. marcescens CL5741 (IMP-1), 95% inhibition of growth
Outline: as §1

VIM-1 = VIM-1 (Pseudomonas aeruginosa, UniProt A0A0F7KYQ8); assay: Enzyme activity: determination of IC50, fluorescence assay with CCF2-FA substrate; assay type: biochemical; conditions: VIM-1 enzyme 30 pM, CCF2-FA 1.25 μM, 2 hours at 25° C.; read-out: VIM1 IC50
Outline: (§2)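 Enzyme at 1 pM (NDM-1), 2 pM (IMP-1) or 30 pM (VIM-1) was incubated with inhibitor (20 μM to 0.00063 μM) and 1.25 μM CCF2-FA in 100 mM KH2PO4 pH 7, 0.005% Tween-20, 10 μM ZnSO4 for 2 hours at 25° C. Fluorescence was read at ex 405/em 460 nm; IC50 from 4-parameter fit.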

IMP-1 = IMP-1 (Serratia marcescens, UniProt P52699); assay: as above; assay type: biochemical; conditions: IMP-1 enzyme 2 pM, CCF2-FA 1.25 μM, 2 hours at 25° C.; read-out: IMP1 IC50
Sequence of IMP-1 (P52699 19-246, looked up, species assumed): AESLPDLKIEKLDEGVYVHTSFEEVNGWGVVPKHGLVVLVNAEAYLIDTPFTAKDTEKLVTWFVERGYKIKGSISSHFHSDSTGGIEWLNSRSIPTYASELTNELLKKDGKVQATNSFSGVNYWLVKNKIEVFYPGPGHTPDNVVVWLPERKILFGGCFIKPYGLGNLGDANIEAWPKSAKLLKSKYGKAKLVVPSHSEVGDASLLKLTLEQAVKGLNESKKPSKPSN
Outline: as §2

NDM-1 = NDM-1 (Klebsiella pneumoniae, UniProt C7C422); assay: as above; assay type: biochemical; conditions: NDM-1 enzyme 1 pM, CCF2-FA 1.25 μM, 2 hours at 25° C.; read-out: NDM1 IC50
Sequence of NDM-1 (C7C422 29-270, looked up, species assumed): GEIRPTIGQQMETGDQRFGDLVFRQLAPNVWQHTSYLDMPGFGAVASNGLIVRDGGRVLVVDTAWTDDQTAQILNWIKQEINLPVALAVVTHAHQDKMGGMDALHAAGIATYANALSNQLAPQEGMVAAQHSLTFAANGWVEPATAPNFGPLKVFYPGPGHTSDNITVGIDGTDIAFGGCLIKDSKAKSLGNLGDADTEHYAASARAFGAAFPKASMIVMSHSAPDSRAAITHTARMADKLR
Outline: as §2

| SMILES | VIM1 KP599644 MITC95 [1] [µM] | NDM1 EC30005 MITC95 [2] [µM] | IMP1 SM5741 MITC95 [3] [µM] | IC50 (VIM-1) [µM] | IC50 (IMP-1) [µM] | IC50 (NDM-1) [µM] |
| --- | --- | --- | --- | --- | --- | --- |
| CCC[C@@H](C(=O)O)[C@H](Cc1ccc(-c2ccc3nnn(C)c3c2)cc1)c1nnn[nH]1 [Example 248, (2R)-2-[(1S)-2-[4-(1-methyl-1H-benzotriazol-6-yl)phenyl]-1-(1H-tetrazol-5-yl)ethyl]pentanoic acid] | >200 | 100 | >200 | 0.23 | 4.7 | 0.7 |
| CCC[C@H](C(=O)O)[C@H](Cc1ccc(-c2cnc(CO)s2)cc1)c1nnn[nH]1 [Example 249] | 100 | 100 | >200 | 0.0019 | 0.046 | 0.0084 |
| CCC[C@H](C(=O)O)[C@H](Cc1ccc(-c2cnn(Cc3ccncc3)c2)cc1)c1nnn[nH]1 [Example 250, (2S)-2-[(1S)-2-{4-[1-(pyridin-4-ylmethyl)-1H-pyrazol-4-yl]phenyl}-1-(1H-tetrazol-5-yl)ethyl]pentanoic acid] | >200 | 25 | 200 | 0.0075 | 0.082 | 0.0096 |
| CCC[C@H](C(=O)O)[C@H](Cc1ccc(CN2CCN(C)CC2)cc1)c1nn[nH]n1 [Example 251, (2S)-2-[(1S)-2-{4-[(4-methylpiperazin-1-yl)methyl]phenyl}-1-(2H-tetrazol-5-yl)ethyl]pentanoic acid] | 75 | 8.3 | 38 | 0.43 | 1.3 | 0.33 |
| CCC[C@H](C(=O)O)[C@H](Cc1ccc(COCCN2CCOCC2)cc1)c1nn[nH]n1 [Example 252, (2S)-2-[(1S)-2-{4-[(2-morpholin-4-ylethoxy)methyl]phenyl}-1-(2H-tetrazol-5-yl)ethyl]pentanoic acid] | 50 | 15 | 150 | 0.089 | 0.8 | 0.18 |
| CCC[C@H](C(=O)O)[C@H](Cc1ccc(CCN2CCCC2=O)cc1)c1nn[nH]n1 [Example 253, (2S)-2-[(1S)-2-{4-[2-(2-oxopyrrolidin-1-yl)ethyl]phenyl}-1-(2H-tetrazol-5-yl)ethyl]pentanoic acid] | 50 | 12.5 | 38 | 0.0091 | 0.097 | 0.034 |
| CCC[C@H](C(=O)O)[C@H](Cc1ccc(CCCO)cc1)c1nn[nH]n1 [Example 254, (2S)-2-[(1S)-2-[4-(3-hydroxypropyl)phenyl]-1-(2H-tetrazol-5-yl)ethyl]pentanoic acid] | 25 | 5.2 | 31 | 0.009 | 0.18 | 0.037 |
| CCC[C@H](C(=O)O)[C@H](Cc1ccc(CCC(O)CO)cc1)c1nn[nH]n1 (stereo partly drawn) [Example 255, (2S)-2-[(1S)-2-[4-(3,4-dihydroxybutyl)phenyl]-1-(2H-tetrazol-5-yl)ethyl]pentanoic acid] | 50 | 10.4 | 18.8 | 0.012 | 0.19 | 0.044 |
| CCC[C@H](C(=O)O)[C@H](Cc1ccc(CCN2CCCCC2=O)cc1)c1nn[nH]n1 [Example 256, (2S)-2-[(1S)-2-{4-[2-(2-oxopiperidin-1-yl)ethyl]phenyl}-1-(2H-tetrazol-5-yl)ethyl]pentanoic acid] | 150 | 10.4 | 6.2 | 0.016 | 0.045 | 0.027 |
| CCC[C@H](C(=O)O)[C@H](Cc1ccc(C[C@@H]2CCCOC2)cc1)c1nn[nH]n1 [Example 257, (2S)-2-[(1S)-2-{4-[(3S)-tetrahydro-2H-pyran-3-ylmethyl]phenyl}-1-(2H-tetrazol-5-yl)ethyl]pentanoic acid] | 200 | 7.3 | 6.2 | 0.014 | 0.033 | 0.013 |
